We go through 3 molecules from ChEMBL document CHEMBL5252652, “Benzo[b]naphtho[2,1-d]furans and 2-Phenylnaphthalenes from Streblus usambarensis” (J Nat Prod, 2023).

Converted amounts (≈) assume the structure as drawn.

One data set concerns MCF7. The data set is described as follows: Cytotoxicity against human MCF7 cells assessed as reduction in cell viability incubated for 24 hrs by PrestoBlue reagent based fluorescence assay. The format is toxicity. Conditions: mcf7, 24 h.
In the next data set the test system is Bacillus subtilis. The data set is described as follows: Antibacterial activity against Bacillus subtilis assessed as inhibition of bacterial growth incubated for 4 to 20 hrs by resazurin based microplate reader analysis. In kind it is functional. Conditions: time 4-20 hrs. A general note: Alamar Blue is a resazurin reagent that responds to reducing activity.

For orientation: MIC means the lowest concentration found to suppress growth.

For `COc1ccc2ccc3c4cc(O)c(OC)c(CC=C(C)C)c4oc3c2c1`, the Activity result in the data set with MCF7 is given as “Non-Toxic”. On to `COc1c(O)cc2c(oc3c4cc(O)ccc4ccc23)c1CC=C(C)C`, for which the Activity result in the data set with MCF7 was “Non-Toxic”.

With `CC1(C)C=Cc2c(-c3ccc4ccc(O)cc4c3)ccc(O)c2O1`, the MIC with Bacillus subtilis was found to be 9 µM (≈ 2.87 µg/mL). The Activity result in the data set on MCF7 was “Non-Toxic”.
